Reference: ChEMBL document CHEMBL3301361, “Experimental in vitro DMPK and physicochemical data on a set of publicly disclosed compounds”

Assay: physchem
Settings: octan-1-ol/water, pH 7.4, LogD7.4

Row | Compound | logD
1 | C#CCN(c1cc(Nc2ccc(OCC(O)CN(C)C)cc2)ncn1)c1cc(Cl)ccc1Cl (stereo not given) | 2.8
2 | O=C(O)CC[C@@H]1c2ccccc2C[C@H]1NC(=O)c1cc2sc(Cl)c(Cl)c2[nH]1 | 2.84
3 | Brc1cc(Br)cc(COC[C@H](c2ccccc2)N2CCNCC2)c1 | 2.8
4 | O=S(=O)(NCC(c1ccccc1)N1CCCCCC1)c1ccc(F)c(F)c1 (stereo not given) | 2.84
5 | Cc1cc2n[nH]c(=O)n2c2cc(-c3ccc(C(=O)N4CCOCC4)cc3)ccc12 | 2.77
6 | Cc1cc2n[nH]c(=O)n2c2cc(-c3cccnc3)ccc12 | 2.72
7 | Cc1c(-c2ccc(O)cc2)c(=O)oc2cc(O)ccc12 | 2.8
8 | CC1=C(C2=C(C)C(=O)c3c(cc(O)c(O)c3Cc3ccccc3)C2=O)C(=O)c2cc(O)c(O)c(Cc3ccccc3)c2C1=O | 2.73
9 | O=C(COCc1ccncc1)N1CCC(c2ccc(Cl)cc2)CC1 | 2.74
10 | O=C(COCc1ccncc1)N1CCC(c2ccc(F)cc2Cl)CC1 | 2.7
11 | CC1(c2ccc(Cl)cc2)CCN(C(=O)COCc2ccncc2)CC1 | 2.79
12 | COc1ccc(-c2coc3cc(O)cc(O)c3c2=O)cc1OC | 2.8
13 | COc1ccc(-c2cc(O)c3cc(Cl)ccc3n2)cc1 | 2.7
14 | Cc1sc2ncnc(SCC(=O)N3CCN(C(=O)c4ccco4)CC3)c2c1C | 2.7
15 | O=C1NC(c2ccc(Br)cc2)Nc2ccccc21 (stereo not given) | 2.68
16 | N#Cc1cccc(COc2ccc3c(c2)OCCC3=O)c1 | 2.8
17 | O=c1oc2c(O)cccc2cc1-c1ccc(O)cc1 | 2.8
18 | Oc1ccc(-c2nc3ccccc3nc2-c2ccc(O)cc2)cc1 | 2.7
19 | COc1cc(-c2c(F)ccc3c(N)c(C(=O)NC4CC4)nnc23)c(OC)nn1 | 2.75
20 | COc1cc2ncnc(Nc3cc(NC(=O)c4ccnc(N5CCOCC5)c4)ccc3C)c2cc1OCCN1CCCC1 | 2.7
21 | Clc1ccccc1-c1c[nH]nn1 | 2.68
22 | Cc1cccc(Cn2ccn3c(=O)cc(N4CCOCC4)nc23)c1 | 2.8
23 | CCCCCSc1nc2nc(N)sc2c(=O)[nH]1 | 2.86

Row | Compound | logD
24 | O=C(Nc1cccc(Cl)c1)N1CCN(C[C@@H]2CCCN(C3CC3)C2)CC1 | 2.74
25 | CCN1CCO[C@@H](CN2CCN(C(=O)Nc3ccc(Cl)c(Cl)c3)CC2)C1 | 2.68
26 | Clc1ccccc1CNC[C@H]1CC[C@H](CNCc2ccccc2Cl)CC1 | 2.74
27 | CC(=O)Nc1cc2c(ccn2-c2cc(NC3CC3)n3ncc(C#N)c3n2)cc1C | 2.66
28 | C[C@@H]1CN(c2noc(C(F)F)n2)CCN1c1ncc(OCc2ccncc2C#N)cn1 | 2.85
29 | Cn1cncc1-c1c2c(=O)n(C)c(=O)n(CC3CC3)c2nn1Cc1ccnc2ccc(Cl)cc12 | 2.69
30 | Cc1cc(CNc2ncc(Cl)c(Nc3cc(C)[nH]n3)n2)on1 | 2.68
31 | Cc1cc(Nc2nc(NCc3ccccn3)ncc2Br)n[nH]1 | 2.8
32 | Nc1ncc(-c2ccc(S(=O)(=O)N3CCOCC3)cc2)nc1C(=O)Nc1cccnc1 | 2.83
33 | CC(C)Cn1c(=O)n(C)c(=O)c2c(C(=O)N3CC[C@@H](O)C3)c(Oc3cccc4ccccc34)sc21 | 2.87
34 | CNS(=O)(=O)c1ccc2c(C(=O)NC[C@@H](O)CN3CCC(Oc4ccc(Cl)c(Cl)c4)CC3)c[nH]c(=O)c2c1 | 2.77
35 | Cc1c(Cl)ccc(OC2CCN(C[C@H](O)CNC(=O)c3c[nH]c(=O)c4cc(S(C)(=O)=O)ccc34)CC2)c1Cl | 2.83
36 | CS(=O)(=O)c1ccc(C(=O)NC[C@@H](O)CN2CCC(Oc3ccc(Cl)c(Cl)c3)CC2)s1 | 2.86
37 | Nc1cccc(CCc2ccc3cc[nH]c3c2)n1 | 2.8
38 | COc1cc(N2CCN(C)CC2)c2[nH]c(C(=O)Nc3ccc(N4CCOCC4)cc3)cc(=O)c2c1 | 2.7
39 | CN1CCN(c2cc(F)cc3c(=O)cc(C(=O)Nc4ccc(N5CCOCC5)cc4)[nH]c23)CC1 | 2.7
40 | O=S(=O)(Nc1ncc(Cl)s1)c1cc(F)c(Oc2ccc(F)cc2-c2cn[nH]c2)cc1F | 2.7
41 | Nc1n[nH]cc1-c1cc(C(F)(F)F)ccc1Oc1cc(F)c(S(=O)(=O)Nc2cscn2)cc1Cl | 2.65
42 | CC(C)(c1cc(N2CCOCC2)nc(-c2cccc3[nH]ccc23)n1)S(C)(=O)=O | 2.65
43 | C[C@H](NC(=O)C1(N)CCN(c2ncnc3[nH]ccc23)CC1)c1ccc(Cl)cc1 | 2.67
44 | NC1(C(=O)NC(CCCN2CCOCC2)c2ccc(Cl)cc2)CCN(c2ncnc3[nH]ccc23)CC1 (stereo not given) | 2.7
45 | CC(NC(=O)C1(N)CCN(c2ncnc3[nH]ccc23)CC1)c1ccc(Cl)cc1 (stereo not given) | 2.7
46 | COc1cc(-c2ccncc2)cc2cnc(Nc3ccc([C@@H](C)NC(C)=O)cc3)nc12 | 2.73

Row | Compound | logD
47 | COc1ccc(-c2ccc3c(N4CCOC[C@@H]4C)nc(N4CCOC[C@@H]4C)nc3n2)cc1C(N)=O | 2.82
48 | O=C1C2=Nc3ccccc3CN2c2ccccc21 | 2.71
49 | NS(=O)(=O)c1ccc(Nc2nccc(Nc3c(Cl)ccc4c3OCO4)n2)cc1 | 2.7
50 | CNC(=O)C1(N2CCCCC2=O)CCN(CC[C@H](CN(C)C(=O)c2c(OC)c(C#N)cc3ccccc23)c2ccc(Cl)c(Cl)c2)CC1 | 2.78
51 | CCCc1c(OCc2ccc(-c3nn[nH]n3)cc2OC)ccc(C(C)=O)c1O | 2.8
52 | CC(C)N1CCN(C(=O)NCc2ccc(Cl)c(Cl)c2)CC1 | 2.75
53 | COc1cc(N2CC[C@@H](N(C)C)C2)c2[nH]c(C(=O)Nc3ccc(N4CCOCC4)cc3)cc(=O)c2c1 | 2.7
54 | C[C@@H](O)[C@@H](CO)Nc1nc(SCc2cccc(F)c2F)nc2nc(N)sc12 | 2.83
55 | O=C(NC1Cc2ccccc2N(CC(=O)N2CCC(O)CC2)C1=O)c1cc2cc(Cl)sc2[nH]1 (stereo not given) | 2.86
56 | CC(C)C[C@@H](CO)NS(=O)(=O)c1ccc(Cl)s1 | 2.8
57 | Cc1ncc(-c2nc(Nc3ccc(C(=O)N(C)C)cc3)ncc2F)n1C(C)C | 2.77
58 | Cc1ncc(-c2ccnc(Nc3ccc(C(N)=O)c(F)c3)n2)n1C(C)C | 2.8
59 | CC[C@H](C)[C@@H](CO)NS(=O)(=O)c1ccc(Cl)s1 | 2.7
60 | COc1cc2ncc(C(N)=O)c(Nc3ccc(F)cc3F)c2cc1NCCN1CCOCC1 | 2.68
61 | CNC(=O)c1ccc(Nc2nccc(-c3cnc(C)n3C(C)C)n2)cc1 | 2.69
62 | Cc1cc(Nc2ncc(F)c(-c3cnc(C)n3C(C)C)n2)ccc1C(=O)N(C)C | 2.86
63 | Cn1c(=O)c2c(-c3ccc(S(C)(=O)=O)o3)n(Cc3ccnc4ccc(Cl)cc34)nc2n(CC2CC2)c1=O | 2.71
64 | COc1cc2ncc(C(N)=O)c(Nc3ccc(F)cc3)c2cc1OC | 2.82
65 | Nc1nonc1C(=NO)Nc1ccc(F)c(Cl)c1 | 2.7
66 | C=CCNC(=O)c1cc([N+](=O)[O-])cc2c(=O)[nH]c(Nc3ccc(Cl)c(Cl)c3)nc12 | 2.7
67 | CN(Cc1ccc(Cl)cc1)C(=O)C1(N)CCN(c2ncnc3[nH]ccc23)CC1 | 2.8

Now from value to compound:

Row | logD | Compound
68 | 2.87 | CC(C)C(NC(=O)Cn1c(C2CCCCC2)ncc(NC(=O)OCc2ccccc2)c1=O)C(=O)C(F)(F)F (stereo not given)
69 | 2.83 | O=S(=O)(Cc1ccccc1)NCC(c1ccccc1)N1CCCCCC1 (stereo not given)
70 | 2.71 | N#Cc1cc(S(=O)(=O)NCC(c2ccccc2)N2CCCCCC2)ccc1F (stereo not given)
71 | 2.86 | N#Cc1ccc(S(=O)(=O)NCC(c2ccccc2)N2CCCCCC2)cc1 (stereo not given)
72 | 2.86 | Cc1cc2n[nH]c(=O)n2c2cc(-c3ccc(CO)cc3)ccc12
73 | 2.71 | COc1ccc(-c2cc(=O)c3ccccc3[nH]2)cc1
74 | 2.78 | CC(O)(C(=O)Nc1ccc(S(=O)(=O)c2ccc(O)cc2)cc1)C(F)(F)F (stereo not given)
75 | 2.82 | Cc1ccc(S(=O)(=O)Nc2ccc(/C=C/C(=O)Nc3ccccc3N)cc2)cc1
76 | 2.71 | CSc1ncccc1C(=O)NCc1ccc(C)cc1
77 | 2.8 | CC(=O)N1CCOc2cc(COc3ccccc3)cnc21
78 | 2.84 | CC[C@H](NC(=O)c1c([S+](C)[O-])c(-c2ccccc2)nc2c(F)cccc12)c1ccccc1 (stereo not given in full)
79 | 2.75 | CC[C@H](NC(=O)c1c([S+](C)[O-])c(-c2ccccc2)nc2cc(CN(C)C)ccc12)c1ccccc1 (stereo not given in full)
80 | 2.86 | CN(CC[C@@H](Oc1ccc(-c2ccccc2)cc1)c1ccc(F)cc1)CC(=O)O
81 | 2.72 | CCC(c1nc2ccsc2c(=O)n1Cc1ccccc1)N(CCCN)C(=O)c1ccc(C(C)C)cc1 (stereo not given)
82 | 2.74 | COCCOc1ccc(C(=O)Nc2cc(NC(=O)c3cccc(N(C)C)c3)ccc2C)cc1
83 | 2.76 | CCN(C(=O)Cc1ccc(S(C)(=O)=O)cc1)C1CCN(CCC(c2ccccc2)c2ccc(C#N)cc2)CC1 (stereo not given)
84 | 2.7 | O=C(NCc1ccccn1)c1ccc(Oc2ccccc2)cc1
85 | 2.81 | Cc1ccc(-c2c[nH]cn2)cc1NC(=O)c1ccc(OCc2ccccn2)cc1
86 | 2.83 | Cc1ccc(-c2nccn2C)cc1NC(=O)c1ccc(OCc2ccccn2)cc1

Row | logD | Compound
87 | 2.67 | Cc1ccc(-c2ncc(C)n2C)cc1NC(=O)c1ccc(OCc2ccccn2)cc1
88 | 2.71 | Cc1ccc(-c2cn(C)c(C)n2)cc1NC(=O)c1ccc(OCc2ccccn2)cc1
89 | 2.78 | COCCC(=O)Nc1ccc(Nc2ncc3cc(-c4ccncc4)ccc3n2)cc1
90 | 2.7 | Cn1c(N)nc(CCc2ccc3ccccc3c2)cc1=O
91 | 2.79 | CCOC(=O)[C@H](Cc1ccc([N+](=O)[O-])cc1)NC(=O)c1ccccc1
92 | 2.8 | CN1CCc2c1nc1ccccc1c2NC(=O)Cc1ccccc1
93 | 2.67 | CCOc1ccccc1-c1ccc2c(c1)C(=O)C(=O)c1ccccc1-2
94 | 2.84 | CC(C)C(NC(=O)Cn1c(-c2ccccc2)ccc(NC(=O)NCc2cccnc2)c1=O)C(=O)C(F)(F)F (stereo not given)
95 | 2.83 | Cc1ccc(NC(=O)c2cccc(N(C)C)c2)cc1NC(=O)c1ccc(OCc2ccccn2)cc1
96 | 2.8 | O=[N+]([O-])c1ccc2[nH]c(-c3ccccn3)nc2c1
97 | 2.7 | CCCN(CCC)C(=O)c1cccc(C(=O)N[C@@H](Cc2ccccc2)[C@H](O)CNCc2cccc(OC)c2)c1
98 | 2.74 | Cc1ccc(S(=O)(=O)c2ccccc2)cc1
99 | 2.76 | c1ccc(CNc2nc3ccccc3[nH]2)cc1
100 | 2.81 | CCCC(=O)Nc1ccc2c(c1)C(=O)C(=O)c1ccccc1-2
101 | 2.83 | CC(C)(C)C(=O)Nc1ccc2c(c1)C(=O)C(=O)c1ccccc1-2
102 | 2.72 | COC(=O)CCC(=O)Nc1ccc2c(c1)-c1ccccc1C(=O)C2=O
103 | 2.81 | Cc1ccc(NC(=O)c2cccc(OCC(C)C)c2)cc1C(=O)Nc1cccnc1
104 | 2.7 | O=C1Nc2ccc(S(=O)(=O)N3CCC[C@H]3COc3ccccc3)cc2C1=O
105 | 2.7 | COC(=O)c1c(C)[nH]c(C)c1C(=O)c1ccccc1Cl
